Experimental findings from US20210324441A1, “CHARACTERIZATION OF MICROORGANISMS VIA MALDI-TOF” (BIOMÉRIEUX, priority 2014, published 2021) are described below.

Molecules are shown by their SMILES.

The subject of one data set is K. pneumoniae. Briefly: MIC of ampicillin for the bacterial strain. In kind it is cell-based. The settings on record: strain 1, K. pneumoniae, resistant.
For the next data set, the system named is E. coli. Briefly: MIC of ampicillin for the bacterial strain. The format is cell-based.
Data set [1] is described as follows: Negative control without enzyme: ampicillin dried on MALDI plate, MALDI-TOF detection. In kind it is physicochemical. The settings on record: water with 0.76 mM zinc, no enzyme, ambient temperature, one hour. As for the experimental part: In the present experiment, an analysis zone of a MALDI plate (VITEK® MS disposable slides TO-430) was treated with a beta-lactam antibiotic and tested in order to evaluate the capacity of the antibiotics to be cleaved by a beta-lactamase. Ampicillin was used as the model for the antibiotic beta-lactam. The experiment was carried out by implementing the steps below: • 2 μL of a solution of ampicillin in a concentration of 10 mg/mL in water was deposited in the form of a drop onto an analysis zone of the MALDI plate. The plate was incubated at 37° C., until the drop had dried out completely. • 2 μL of a recombinant beta-lactamase (β-lactamase from Pseudomonas aeruginosa, Sigma-Aldrich batch L6170-550UN. CAS: 9073-60-3). • 2 μL of recombinant β-lactamase at a concentration of 1 mg/mL in water was used diluted in water supplemented with zinc in the form of zinc sulfate (0.76 millimoles (mM)) to promote enzymatic activity, was deposited onto the dry analysis zone carrying ampicillin. […]

Regarding `CC1(C)S[C@@H]2[C@H](NC(=O)[C@H](N)c3ccccc3)C(=O)N2[C@H]1C(=O)O` [ampicillin], the “MIC of ampicillin (minimum inhibiting concentration of the strain)” value with K. pneumoniae was 32; with E. coli (strain 2, E. coli, resistant, penicillinase), >128; with E. coli (strain 3, E. coli, resistant, TEM β-lactamase), >128; in the data set on E. coli (strain 4, E. coli ATCC 25922, sensitive, no β-lactamase), 4. Besides, the “spontaneous hydrolysis on the plate” value in data set [1] is “A little spontaneous hydrolysis”.
